“And” between values parts separate entries of the source, which are not always exact repeats. Equal values may be shown once. Read-outs that look alike come from different tables or passages of the source.
Columns and labels:
[1] = test system: L1 wild-type C. elegans; conditions: for LC50: caenorhabditis elegans; for C. elegans L1 relative motility, 3-hour post 200 µM KCN dilution: individual replicate (Rep)
[2] = test system: C. elegans; assay: C. elegans chemical screens of RIKEN NPD libraries at 50 μM (hit identification in KCN survival and development/viability assays); format: cell-based, Caenorhabditis elegans; conditions: screened at 50 μM in triplicate; hit = modified z-score < −3; KCN = KCN survival assay, Dev. & Viability = development/viability assay
[3] = test system: HEK293 cells; conditions: for CC50: read-out: HEK293 Cell Viability Assay LC50, 2 days exposure
[4] = test system: C. elegans complex III (decylubiquinol-cytochrome C reductase); assay: In vitro complex III activity assay, C. elegans mitochondria; format: biochemical, Caenorhabditis elegans; conditions: for % Activity Complex III: 100 µM compound, relative to solvent control, mean (SEM); for Percent in vitro activity, Complex III (single replicate Rep1-Rep4) / Percent in vitro activity, Complex III (Mean): 100 μM of NPD compound, C. elegans mitochondria; for Percent in vitro activity, Complex III (single replicate Rep1-Rep4): individual biological replicates; for Percent in vitro activity, Complex III (Mean): mean of four biological replicates
Description: (§1) Mitochondria were isolated from the following free-living nematode strains: C. elegans—N2, CB3474, ECA882, ECA917, ECA1075, ECA1080; C. briggsae—AF16; P. pacificus—PS312; and P. hermaphrodita—B178. With the exception of the P. hermaphrodita strain B178, adult worms of each strain were grown in bulk through liquid culture to obtain mitochondria in sufficient quantities. Due to poor growth in liquid media, mixed stage populations of P. hermaphrodita were washed off and collected from NGM plates seeded with OP50. The isolation of mitochondria from all free-living nematode strains followed the protocol previously outlined in Burns et al.[24]. In brief, a 1 L saturated culture of E. coli HB101 was concentrated 20-fold in 50 mL complete S-medium. ~500,000 L1 worms synchronized from an embryo preparation performed the day prior were added to the S-media/HB101 suspension and grown to adulthood over the course of 3.5 days at 20 °C with shaking at 165 rpm. Following growth, worms were collected in 10 ×15 mL conical tubes and washed 7 times in M9 buffer. Worm suspensions were then combined into a single 15 mL conical tube and diluted to a final volume of 15 mL with M9 buffer. 1 mL aliquots of worm suspension were then distributed to 15 × 1.5 mL screw-cap microcentrifuge tubes and were pelleted at 500 g for 1 min. Excess M9 was aspirated without disturbing the worm pellet. 600 μL ice-cold isolate buffer A (250 mM sucrose, 10 mM Tris (pH 7.5), 1 mM EDTA, 1 mM PMSF (freshly prepared)) and 300 μL cold glass beads were then added to each tube. Tubes were incubated on ice for 10 min, and the worms were then lysed by bead beating (6 x 30 s, with 1 min cooling intervals). Tubes containing worm lysate were centrifuged at 1,000 g for 10 min at 4 °C and the supernatant was transferred to 15 new microcentrifuge tubes on ice. The tubes were centrifuged a second time at 1,000 g for 10 min at 4 °C and the supernatant was once again transferred to 15 new microcentrifuge tubes on ice. These tubes were then centrifuged at 16,000 g for 10 min at 4 °C. The resulting mitochondrial pellet was washed twice by re-suspension in 300 μL of ice-cold isolate buffer B (250 mM sucrose, 10 mM Tris (pH 7.5), 1 mM EDTA). Following the final wash, isolation buffer was aspirated from each tube and the pellets were flash-frozen in ethanol/dry ice and stored at −80 °C until needed.
(§2) The enzymatic activities of individual ETC complexes (I-IV) were assessed spectrophotometrically in isolated mitochondria using a Varioskan LUX Multimode plate reader (ThermoFisher Scientific). Mitochondrial pellets previously isolated were thawed on ice and resuspended in ice-cold isolation buffer (250 mM sucrose, 10 mM Tris (pH 7.5), 1 mM EDTA). The BCA assay (Walker, 1994) was used to quantify the protein concentration of mitochondria suspensions; solutions were diluted to a concentration of 0.2 mg/mL for use in all assays. For the complex I assay, mitochondria pellets were freeze-thawed on ice three times to increase enzyme accessibility. […] 20 μL mitochondria suspension was then added/mixed with a pipette to initiate the reaction. Immediately following the addition of mitochondria, absorbance was measured (complex I and II: 600 nm; complex III and IV: 550 nm) in 30 s intervals over 15 min. Enzymatic activity was determined in each reaction by plotting absorbance versus time and calculating the slope of the curve during the initial linear phase of the reaction. […] Percent activity of each complex was calculated by dividing the enzyme-specific activity of each well by the enzyme-specific activity of the corresponding solvent controls.
Antimycin A-sensitive complex III (decylubiquinol-cytochrome C […]) activity was determined by measuring the reduction of cytochrome C (CytC) as optimized in Luo et al.[59]. Decylubiquinol for complex III assays was prepared fresh as described in Janssen and Boyle, 2019[60].

[5] = test system: C. elegans complex IV (cytochrome C oxidase); assay: In vitro complex IV activity assay, C. elegans mitochondria; format: biochemical, Caenorhabditis elegans; conditions: for % Activity Complex IV: 100 µM compound, relative to solvent control, mean (SEM); for Percent in vitro activity, Complex IV (single replicate Rep1-Rep4) / Percent in vitro activity, Complex IV (Mean): 100 μM of NPD compound, C. elegans mitochondria; for Percent in vitro activity, Complex IV (single replicate Rep1-Rep4): individual biological replicates; for Percent in vitro activity, Complex IV (Mean): mean of four biological replicates
Description: as §1, §2
Complex IV (cytochrome C oxidase) activity was determined by following the oxidation of CytC in the protocol outlined by Janssen and Boyle, 2019[60]. Reduced CytC was prepared fresh by adding 1 μL increments of 1 M dithiothreitol to a 1 mM solution of CytC and vortexing. A colour change from brown to orange/pink signals when CytC has been reduced.

[6] = target: C. elegans (N2) complex I (NADH:ubiquinone oxidoreductase) (Caenorhabditis elegans, UniProt P24887+Q93873+Q94360); assay: biochemical; format: biochemical; conditions: for % Activity Complex I: 100 µM compound, relative to solvent control, mean (SEM); for Percent in vitro activity, Complex I (single replicate Rep1-Rep4) / Percent in vitro activity, Complex I (Mean): 100 μM of NPD compound, C. elegans mitochondria; for Percent in vitro activity, Complex I (single replicate Rep1-Rep4): individual biological replicates; for Percent in vitro activity, Complex I (Mean): mean of four biological replicates
Sequence of C. elegans (N2) complex I (NADH:ubiquinone oxidoreductase) (Q94360 17-199): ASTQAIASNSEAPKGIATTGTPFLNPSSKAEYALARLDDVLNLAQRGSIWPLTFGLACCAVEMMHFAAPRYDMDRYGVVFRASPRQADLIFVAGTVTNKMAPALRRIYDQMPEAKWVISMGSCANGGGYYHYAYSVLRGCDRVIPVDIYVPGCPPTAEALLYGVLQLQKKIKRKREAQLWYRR
Sequence of C. elegans (N2) complex I (NADH:ubiquinone oxidoreductase) (P24887 whole entry): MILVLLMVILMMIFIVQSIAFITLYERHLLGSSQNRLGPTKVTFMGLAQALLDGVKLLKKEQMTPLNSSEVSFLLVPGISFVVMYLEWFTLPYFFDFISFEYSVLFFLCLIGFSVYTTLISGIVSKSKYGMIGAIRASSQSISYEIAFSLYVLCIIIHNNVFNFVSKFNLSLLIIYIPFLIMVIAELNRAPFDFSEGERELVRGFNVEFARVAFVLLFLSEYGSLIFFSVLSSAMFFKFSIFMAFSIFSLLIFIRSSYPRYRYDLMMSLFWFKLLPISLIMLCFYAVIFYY
Sequence of C. elegans (N2) complex I (NADH:ubiquinone oxidoreductase) (Q93873 31-482): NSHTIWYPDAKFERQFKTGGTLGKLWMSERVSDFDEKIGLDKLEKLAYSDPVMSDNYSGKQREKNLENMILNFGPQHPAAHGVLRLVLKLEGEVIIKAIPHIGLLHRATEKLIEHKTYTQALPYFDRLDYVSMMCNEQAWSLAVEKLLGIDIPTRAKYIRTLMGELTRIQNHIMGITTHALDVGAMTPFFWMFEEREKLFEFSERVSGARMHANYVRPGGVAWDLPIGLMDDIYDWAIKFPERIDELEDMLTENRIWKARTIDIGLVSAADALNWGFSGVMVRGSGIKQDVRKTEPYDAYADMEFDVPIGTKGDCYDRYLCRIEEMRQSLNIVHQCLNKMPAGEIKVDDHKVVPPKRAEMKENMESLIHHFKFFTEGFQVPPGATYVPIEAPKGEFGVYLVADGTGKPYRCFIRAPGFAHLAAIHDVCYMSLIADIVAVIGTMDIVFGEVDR
Summary of the method: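 Mitochondria from liquid-cultured adults were freeze-thawed thrice before the 15-min DCIP-coupled NADH oxidation read.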

[7] = target: C. elegans complex II (succinate dehydrogenase) (Caenorhabditis elegans, UniProt O62215+P41956+Q09545); assay: In vitro complex II activity assay, C. elegans mitochondria; format: biochemical; conditions: for % Activity Complex II: 100 µM compound, relative to solvent control, mean (SEM); for Percent in vitro activity, Complex II (single replicate Rep1-Rep4) / Percent in vitro activity, Complex II (Mean): 100 μM of NPD compound, C. elegans mitochondria; for Percent in vitro activity, Complex II (single replicate Rep1-Rep4): individual biological replicates; for Percent in vitro activity, Complex II (Mean): mean of four biological replicates
Sequence of C. elegans complex II (succinate dehydrogenase) (P41956 30-182): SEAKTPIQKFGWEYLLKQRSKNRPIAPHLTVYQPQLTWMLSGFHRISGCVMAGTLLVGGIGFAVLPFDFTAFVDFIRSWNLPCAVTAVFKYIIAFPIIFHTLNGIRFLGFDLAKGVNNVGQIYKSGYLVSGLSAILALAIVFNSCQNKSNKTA
Sequence of C. elegans complex II (succinate dehydrogenase) (Q09545 22-298): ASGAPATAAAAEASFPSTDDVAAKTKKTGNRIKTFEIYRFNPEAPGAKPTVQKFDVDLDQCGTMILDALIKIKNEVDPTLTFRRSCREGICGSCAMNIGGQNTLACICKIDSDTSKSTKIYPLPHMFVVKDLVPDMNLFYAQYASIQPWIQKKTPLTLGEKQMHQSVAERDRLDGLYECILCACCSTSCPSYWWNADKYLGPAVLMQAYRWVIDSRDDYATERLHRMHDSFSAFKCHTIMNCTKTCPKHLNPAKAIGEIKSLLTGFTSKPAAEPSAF
Sequence of C. elegans complex II (succinate dehydrogenase) (Q09508 32-646, further chain): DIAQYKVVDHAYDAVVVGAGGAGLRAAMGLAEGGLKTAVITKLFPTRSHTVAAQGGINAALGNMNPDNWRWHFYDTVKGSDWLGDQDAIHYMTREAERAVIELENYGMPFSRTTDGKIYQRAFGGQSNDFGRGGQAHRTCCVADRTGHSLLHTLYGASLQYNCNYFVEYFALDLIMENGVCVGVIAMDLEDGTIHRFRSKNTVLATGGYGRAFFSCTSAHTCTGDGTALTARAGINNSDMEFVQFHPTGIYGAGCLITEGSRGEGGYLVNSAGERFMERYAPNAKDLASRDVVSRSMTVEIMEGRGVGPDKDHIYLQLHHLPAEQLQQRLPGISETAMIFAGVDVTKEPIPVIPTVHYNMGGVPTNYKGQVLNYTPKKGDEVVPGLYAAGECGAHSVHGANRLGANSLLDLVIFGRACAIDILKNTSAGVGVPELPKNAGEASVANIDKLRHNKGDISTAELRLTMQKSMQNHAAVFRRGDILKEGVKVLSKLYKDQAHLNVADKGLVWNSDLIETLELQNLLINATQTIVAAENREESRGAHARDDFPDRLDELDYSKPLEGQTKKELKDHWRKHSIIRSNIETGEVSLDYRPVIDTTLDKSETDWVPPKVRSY
Sequence of C. elegans complex II (succinate dehydrogenase) (O62215 31-145): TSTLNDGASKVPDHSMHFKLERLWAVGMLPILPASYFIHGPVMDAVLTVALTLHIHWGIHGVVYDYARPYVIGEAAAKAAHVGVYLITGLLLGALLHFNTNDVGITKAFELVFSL
Summary of the method: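 Mitochondria isolated from adult C. elegans were diluted to 0.2 mg/mL protein and assayed for complex II by the DCIP-coupled method. A600 was read every 30 s over 15 min, with initial linear slope expressed as percent of solvent control. Screening was at 100 μM (≥3 biological replicates), followed by dose-response.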

COc1ccc(-c2cc(=Nc3ccc(C)cc3)c3ccccc3o2)cc1OC [NPD1450]
LC50 [1]: 35.3 µM
Hit Type [2]: KCN
HEK293 viability [3]: 0.921
CC50 [3]: > 50 µM
% Activity Complex III [4]: 111.72 (0.94) %
Percent in vitro activity, Complex III (single replicate Rep1-Rep4) [4]: 113.847% and 114.804% and 111.813% and 106.416%
Percent in vitro activity, Complex III (Mean) [4]: 111.720%
% Activity Complex IV [5]: 117.12 (3.30) %
Percent in vitro activity, Complex IV (single replicate Rep1-Rep4) [5]: 109.749% and 111.295% and 110.581% and 136.859%
Percent in vitro activity, Complex IV (Mean) [5]: 117.121%
% Activity Complex I [6]: 84.47 (2.03) %
Percent in vitro activity, Complex I (single replicate Rep1-Rep4) [6]: 79.543% and 95.426% and 77.236% and 85.664%
Percent in vitro activity, Complex I (Mean) [6]: 84.467%
% Activity Complex II [7]: 103.01 (4.34) %
Percent in vitro activity, Complex II (single replicate Rep1-Rep4) [7]: 124.470% and 101.843% and 81.995% and 103.742%
Percent in vitro activity, Complex II (Mean) [7]: 103.012%

COc1ccc(-c2cc(=Nc3ccccc3N)c3ccccc3o2)cc1 [NPD6380]
LC50 [1]: 14.3 µM
C. elegans L1 relative motility, 3-hour post 200 µM KCN dilution ([1]; dose 0.4 µM): 1.243 and 1.189
C. elegans L1 relative motility, 3-hour post 200 µM KCN dilution ([1]; dose 0.8 µM): 1.074 and 1.086
C. elegans L1 relative motility, 3-hour post 200 µM KCN dilution ([1]; dose 3.1 µM): 1.020 and 1.053
C. elegans L1 relative motility, 3-hour post 200 µM KCN dilution ([1]; dose 6.3 µM): 1.040 and 1.101
C. elegans L1 relative motility, 3-hour post 200 µM KCN dilution ([1]; dose 12.5 µM): 0.696 and 0.688
C. elegans L1 relative motility, 3-hour post 200 µM KCN dilution ([1]; dose 25 µM): 0.136 and 0.141
C. elegans L1 relative motility, 3-hour post 200 µM KCN dilution ([1]; dose 50 µM): 0.030 and 0.035
Hit Type [2]: KCN
HEK293 viability ([3]; dose 0.8 µM, individual replicate (Rep)): 0.998
HEK293 viability ([3]; dose 3.1 µM, individual replicate (Rep)): 0.945 and 0.951
HEK293 viability ([3]; dose 6.3 µM, individual replicate (Rep)): 0.687 and 0.797
HEK293 viability ([3]; dose 12.5 µM, individual replicate (Rep)): 0.542 and 0.584
HEK293 viability ([3]; dose 25 µM, individual replicate (Rep)): 0.441 and 0.466
HEK293 viability ([3]; dose 50 µM, individual replicate (Rep)): 0.431 and 0.445
CC50 [3]: 29.2 µM
% Activity Complex III [4]: 107.06 (1.36) %
Percent in vitro activity, Complex III (single replicate Rep1-Rep4) [4]: 109.305% and 109.700% and 110.292% and 98.948%
Percent in vitro activity, Complex III (Mean) [4]: 107.062%
% Activity Complex IV [5]: 115.38 (4.42) %
Percent in vitro activity, Complex IV (single replicate Rep1-Rep4) [5]: 108.559% and 111.425% and 100.551% and 140.996%
Percent in vitro activity, Complex IV (Mean) [5]: 115.383%
% Activity Complex I [6]: 86.43 (2.27) %
Percent in vitro activity, Complex I (single replicate Rep1-Rep4) [6]: 77.779% and 82.402% and 98.876% and 86.642%
Percent in vitro activity, Complex I (Mean) [6]: 86.425%
% Activity Complex II [7]: 102.27 (2.46) %
Percent in vitro activity, Complex II (single replicate Rep1-Rep4) [7]: 113.834% and 92.410% and 96.068% and 106.772%
Percent in vitro activity, Complex II (Mean) [7]: 102.271%

CCCCCCCCCCCCCCCc1cccc(O)c1C(=O)O [Anacardic acid]
LC50 [1]: 3.35 µM
Hit Type [2]: KCN
CC50 [3]: > 50 µM
% Activity Complex III [4]: 0.00 (0.00) %
Percent in vitro activity, Complex III (single replicate Rep1-Rep4) [4]: 0.000%
Percent in vitro activity, Complex III (Mean) [4]: 0.000%
% Activity Complex IV [5]: 15.80 (1.15) %
Percent in vitro activity, Complex IV (single replicate Rep1-Rep4) [5]: 11.285% and 16.095% and 13.805% and 22.025%
Percent in vitro activity, Complex IV (Mean) [5]: 15.803%
% Activity Complex I [6]: 92.95 (1.67) %
Percent in vitro activity, Complex I (single replicate Rep1-Rep4) [6]: 100.303% and 96.789% and 88.185% and 86.534%
Percent in vitro activity, Complex I (Mean) [6]: 92.953%
% Activity Complex II [7]: 87.62 (1.34) %
Percent in vitro activity, Complex II (single replicate Rep1-Rep4) [7]: 86.093% and 91.144% and 92.500% and 80.735%
Percent in vitro activity, Complex II (Mean) [7]: 87.618%
